Publication PMC10353187, “Discovery of a new potent oxindole multi-kinase inhibitor among a series of designed 3-alkenyl-oxindoles with ancillary carbonic anhydrase inhibitory activity as antiproliferative agents” (BMC Chemistry, 2023)

Tests used:
UO-31 = assay: NCI-60 single-dose antiproliferative assay (SRB); format: cell-based, human; conditions: Homo sapiens, UO-31, 10 μM single dose; UO-31, Renal cancer; read-out: Cell Growth inhibition Percent
Protocol: (§1) From the newly synthesized compounds, eleven compounds (4c, 4d, 5, 9a, 9b, 11a, 11b, 13b, 13c, 15b, and 15c) were selected by the National Cancer Institute (NCI) Developmental Therapeutics Program (DTP), Bethesda, Maryland, USA for the in vitro anti-proliferative activity evaluation. The selected compounds were examined at 10 μM dose against the NCI 60-cell line panel. This panel consists of nine cell line groups of leukemia, non-small cell lung carcinoma (NSCLC), melanoma, colon, CNS, ovarian, renal, prostate, and breast cancers. The results are reported as mean-graph of the percent growth relative to control and presented as percentage growth inhibition (GI%), furthermore, mean GI% of each compound over all panel cell lines was calculated (Table 1; Additional file 1; S3: In vitro biological activity).
(§2) From the newly synthesized compounds, eleven compounds were selected by the National Cancer Institute (NCI) Developmental Therapeutics Program (DTP), Bethesda, Maryland, USA for the in vitro anti-proliferative activity evaluation (For further details see supplementary materials).
(§3) NCI In-vitro Cancer Screening is a two-phase procedure that starts with the assessment of all compounds against the sixty NCI cell line panel depicting leukemia, NSCLC, CNS cancer, melanoma, prostate cancer, breast cancer, renal cancer, colon cancer and ovarian cancer cell lines at a single point of 10μM. The output from the single-dose screen is reportable as a mean graph.
(§4) The human tumor cell lines of the cancer screening panel were grown in RPMI 1640 medium containing 5% fetal bovine serum and 2 mM L-glutamine. For a typical screening experiment, cells were inoculated into 96 well microtiter plates in […] at plating densities ranging from 5000 to 40,000 cells/well depending on the doubling time of individual cell lines. After cell inoculation, the microtiter plates were incubated at 37 °C, 5% CO2, 95% air and 100% relative humidity for 24 h prior to addition of experimental drugs. After 24 h, two plates of each cell line were fixed in situ with trichloroacetic acid (TCA), to represent a measurement of the cell population for each cell line at the time of drug addition (Tz). Experimental drugs were solubilized in dimethyl sulfoxide at 400-fold the desired final maximum test concentration and stored frozen prior to use. At the time of drug addition, an aliquot of frozen concentrate was thawed and diluted to twice the desired final maximum test concentration with complete medium containing 50 µg/ml gentamicin. Aliquot of 100 µl of the drug dilution was added to the appropriate microtiter wells already containing 100 µl of medium, resulting in the required final drug concentration (10 µM). Triplicate wells were prepared for each individual dose. Following drug addition, the plates were incubated for an additional 48 h at 37 °C, 5% CO2, 95% air, and 100% relative humidity. For adherent cells, the assay was terminated by the addition of cold TCA. Cells were fixed in situ by the gentle addition of 50 µl of cold 50% (w/v) TCA (final concentration, 10% TCA) and incubated for 60 min at 4 °C. The supernatant was discarded, and the plates were washed five times with tap water and air dried. Sulforhodamine B (SRB) solution (100 µl) at 0.4% (w/v) in 1% acetic acid was added to each well, and plates were incubated for 10 min at room temperature. After staining, unbound dye was removed by washing five times with 1% acetic acid and the plates were air dried. Bound stain was subsequently solubilized with 10 mM trizma base, and the absorbance was read on an automated plate reader at a wavelength of 515 nm. For suspension cells, the methodology was the same except that the assay was terminated by fixing settled cells at the bottom of the wells by gently adding 50 µl of 80% TCA (final concentration, 16% TCA). […]

hCA IX = hCA IX (Homo sapiens, UniProt Q16790); assay: Stopped flow CO2 hydrase assay; conditions: for Selectivity ratio I/IX: Ki hCA I / Ki hCA IX; for Selectivity ratio II/IX: Ki hCA II / Ki hCA IX
hCA II = hCA II (Homo sapiens, UniProt P00918); assay: Stopped flow CO2 hydrase assay
786-0 = assay: NCI-60 single-dose antiproliferative assay (SRB); format: cell-based; conditions: Homo sapiens; 10 μM single dose; 786-0, Renal cancer; read-out: Cell Growth inhibition Percent
Method in brief: (§5)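 Single 10 μM dose, 48 h at 37 °C in RPMI 1640 with 5% FBS, cells seeded 24 h before dosing. TCA fixation, sulforhodamine B staining, absorbance 515 nm; percent growth derived against time-zero and untreated control plates, triplicate wells.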

SK-MEL-5 = assay: NCI-60 single-dose antiproliferative assay (SRB); format: cell-based; conditions: Homo sapiens; 10 μM single dose; SK-MEL-5, Melanoma; read-out: Cell Growth inhibition Percent
Method in brief: as §5

MALME-3 M = assay: NCI-60 single-dose antiproliferative assay (SRB); format: cell-based; conditions: Homo sapiens, 10 μM single dose, Melanoma, read-out: Cell Growth inhibition Percent
Method in brief: as §5

SW-620 = assay: NCI-60 single-dose antiproliferative assay (SRB); format: cell-based; conditions: Homo sapiens; 10 μM single dose; SW-620, Colon cancer; read-out: Cell Growth inhibition Percent
Method in brief: as §5

hCA XII = hCA XII (Homo sapiens, UniProt O43570); assay: Stopped flow CO2 hydrase assay; conditions: for Selectivity ratio I/XII: Ki hCA I / Ki hCA XII; for Selectivity ratio II/XII: Ki hCA II / Ki hCA XII
hCA XII, sequence (O43570 25-354): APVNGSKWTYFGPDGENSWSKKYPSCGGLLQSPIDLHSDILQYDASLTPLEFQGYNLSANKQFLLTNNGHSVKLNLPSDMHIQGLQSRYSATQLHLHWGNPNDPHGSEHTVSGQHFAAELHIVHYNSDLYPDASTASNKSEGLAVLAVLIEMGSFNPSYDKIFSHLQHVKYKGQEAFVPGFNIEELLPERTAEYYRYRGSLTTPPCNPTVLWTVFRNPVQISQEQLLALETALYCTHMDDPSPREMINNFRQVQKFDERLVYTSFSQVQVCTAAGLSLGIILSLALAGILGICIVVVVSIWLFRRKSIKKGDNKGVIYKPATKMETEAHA

NCI 60 cancer cell lines = assay: NCI-60 single-dose antiproliferative assay, mean over panel; format: cell-based; conditions: Homo sapiens; 10 μM single dose; mean over all NCI panel cell lines; read-out: MEAN % Growth inhibition
Protocol: as §1, §2, §3, §4

hCA I = hCA I (Homo sapiens, UniProt P00915); assay: Stopped flow CO2 hydrase assay
hCA I, sequence (P00915 whole entry): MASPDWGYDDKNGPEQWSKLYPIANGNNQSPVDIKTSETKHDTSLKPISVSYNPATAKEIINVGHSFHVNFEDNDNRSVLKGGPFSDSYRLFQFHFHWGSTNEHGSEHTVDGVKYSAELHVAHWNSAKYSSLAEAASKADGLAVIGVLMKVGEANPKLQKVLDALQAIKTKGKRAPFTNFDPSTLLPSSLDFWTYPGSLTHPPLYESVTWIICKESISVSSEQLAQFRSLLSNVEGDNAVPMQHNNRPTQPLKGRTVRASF

BT-549 = assay: NCI-60 single-dose antiproliferative assay (SRB); format: cell-based; conditions: Homo sapiens; 10 μM single dose; BT-549, Breast cancer; read-out: Cell Growth inhibition Percent
Method in brief: as §5

OVCAR-8 = assay: NCI-60 single-dose antiproliferative assay (SRB); format: cell-based; conditions: Homo sapiens; 10 μM single dose; OVCAR-8, Ovarian Cancer; read-out: Cell Growth inhibition Percent
Method in brief: as §5

NCI-H522 = assay: NCI-60 single-dose antiproliferative assay (SRB); format: cell-based; conditions: Homo sapiens; 10 μM single dose; NCI-H522, Non-small cell lung cancer; read-out: Cell Growth inhibition Percent
Method in brief: as §5

U251 = assay: NCI-60 single-dose antiproliferative assay (SRB); format: cell-based; conditions: Homo sapiens, U-251; 10 μM single dose; U251, CNS cancer; read-out: Cell Growth inhibition Percent
Method in brief: as §5

K-562 = assay: NCI-60 single-dose antiproliferative assay (SRB); format: cell-based; conditions: Homo sapiens, K562; 10 μM single dose; K-562, Leukemia; read-out: Cell Growth inhibition Percent
Method in brief: as §5

MDA-MB-435 = assay: NCI-60 single-dose antiproliferative assay (SRB); format: cell-based; conditions: Homo sapiens; 10 μM single dose; MDA-MB-435, Melanoma; read-out: Cell Growth inhibition Percent
Method in brief: as §5

RPMI-8226 = assay: NCI-60 single-dose antiproliferative assay (SRB); format: cell-based; conditions: Homo sapiens; 10 μM single dose; RPMI-8226, Leukemia; read-out: Cell Growth inhibition Percent
Method in brief: as §5

O=C1Nc2ccccc2C1=CNc1ccc(C(=O)O)cc1 [Compound 4c, 4-{[(2-Oxoindolin-3-ylidene)methyl]amino}benzoic acid]
inhibition at 10 µM (UO-31): 49.7%
melting point: > 300 °C
Ki (hCA IX): > 10000 nM
Ki (hCA II): 8670 nM
inhibition at 10 µM (786-0): 4.08%
inhibition at 10 µM (SK-MEL-5): 1.74%
inhibition at 10 µM (MALME-3 M): 0.23%
inhibition at 10 µM (SW-620): 4.95%
Ki (hCA XII): > 10000 nM
inhibition at 10 µM (NCI 60 cancer cell lines): 3.71%
Ki (hCA I): 6320 nM

NS(=O)(=O)c1nnc(NC=C2C(=O)Nc3ccccc32)s1 [Compound 4d, 5-{[(2-Oxoindolin-3-ylidene)methyl]amino}-1,3,4-thiadiazole-2-sulfonamide]
inhibition at 10 µM (UO-31): 27.5%
melting point: 210 to 216 °C
Ki (hCA IX): 84.2 nM
Selectivity ratio I/IX (hCA IX): 0.100
Selectivity ratio II/IX (hCA IX): 0.046
Ki (hCA II): 3.9 nM
inhibition at 10 µM (BT-549): 1.21%
inhibition at 10 µM (786-0): 1.8%
inhibition at 10 µM (SK-MEL-5): 1.52%
inhibition at 10 µM (OVCAR-8): 0.12%
inhibition at 10 µM (NCI-H522): 0.13%
inhibition at 10 µM (U251): 0.06%
Ki (hCA XII): 8.7 nM
Selectivity ratio I/XII (hCA XII): 0.966
Selectivity ratio II/XII (hCA XII): 0.448
Ki (hCA I): 8.4 nM

NS(=O)(=O)N/C=C1/C(=O)Nc2ccccc21 [Compound 5, 3-(sulfamidmethylene)indoline-2-one]
inhibition at 10 µM (UO-31): 34.6%
melting point: 158 to 160 °C
Ki (hCA IX): 208 nM
Selectivity ratio I/IX (hCA IX): 30.48
Selectivity ratio II/IX (hCA IX): 4.39
Ki (hCA II): 913 nM
inhibition at 10 µM (BT-549): 0.96%
inhibition at 10 µM (SK-MEL-5): 1.04%
inhibition at 10 µM (NCI-H522): 5.36%
inhibition at 10 µM (U251): 2.06%
Ki (hCA XII): 42.4 nM
Selectivity ratio I/XII (hCA XII): 149.65
Selectivity ratio II/XII (hCA XII): 21.54
Ki (hCA I): 6350 nM

O=C1Nc2ccccc2C1=CNc1ccc(C(=O)Nc2ccc(S(=O)(=O)Nc3ncccn3)cc2)cc1 [Compound 9b, 4-{[(2-Oxoindolin-3-ylidene)methyl]amino}-N-{4-[N-(pyrimidin-2-yl)sulfamoyl]phenyl}benzamide]
inhibition at 10 µM (UO-31): 43.7%
melting point: > 300 °C
Ki (hCA IX): > 10000 nM
Ki (hCA II): > 10000 nM
inhibition at 10 µM (BT-549): 27.1%
inhibition at 10 µM (786-0): 4.99%
inhibition at 10 µM (SK-MEL-5): 6.95%
inhibition at 10 µM (MALME-3 M): 2.09%
inhibition at 10 µM (K-562): 3.5%
Ki (hCA XII): > 10000 nM
inhibition at 10 µM (NCI 60 cancer cell lines): 2.55%
Ki (hCA I): > 10000 nM

NS(=O)(=O)c1ccc(NCc2ccc(NC=C3C(=O)Nc4ccccc43)cc2)cc1 [Compound 11a, 4-{[4-({[2-Oxoindolin-3-ylidene]methyl}amino)benzyl]amino}benzenesulfonamide]
inhibition at 10 µM (UO-31): 44%
melting point: 195 to 200 °C
Ki (hCA IX): 217 nM
Selectivity ratio I/IX (hCA IX): 1.48
Selectivity ratio II/IX (hCA IX): 3.43
Ki (hCA II): 746 nM
inhibition at 10 µM (786-0): 0.56%
inhibition at 10 µM (SK-MEL-5): 5.94%
inhibition at 10 µM (MALME-3 M): 3.16%
inhibition at 10 µM (K-562): 0.06%
inhibition at 10 µM (MDA-MB-435): 2.04%
Ki (hCA XII): 78.6 nM
Selectivity ratio I/XII (hCA XII): 4.08
Selectivity ratio II/XII (hCA XII): 9.50
inhibition at 10 µM (NCI 60 cancer cell lines): 2.58%
Ki (hCA I): 321 nM

O=C1Nc2ccccc2C1=CNc1ccc(C(=O)C=CNc2nccs2)cc1 [Compound 13c, 3-{[(4-{3-[Thiazol-2-ylamino]acryloyl}phenyl)amino]methylene}indolin-2-one]
inhibition at 10 µM (UO-31): 16.2%
melting point: 260 to 262 °C
Ki (hCA IX): > 10000 nM
Ki (hCA II): > 10000 nM
inhibition at 10 µM (BT-549): 13.6%
inhibition at 10 µM (RPMI-8226): 35%
inhibition at 10 µM (SK-MEL-5): 5.29%
inhibition at 10 µM (K-562): 24.8%
inhibition at 10 µM (NCI-H522): 2.31%
inhibition at 10 µM (MDA-MB-435): 1.15%
Ki (hCA XII): > 10000 nM
inhibition at 10 µM (NCI 60 cancer cell lines): 3.28%
Ki (hCA I): > 10000 nM
